The subject of experiment [1] is implanted invasive glioblastoma spheroids or gliobastomas PDXs. Also noted: method as in PMID 28270132. Conditions: 100 mg/kg; cited from earlier work.
The subject of experiment [2] is PDAC1 3D spheres. The experiment can be described thus: Viability curves on PDAC1 3D spheres. The class given is cell-based. Conditions: Homo sapiens, 30 h. From the text:
The PDAC patient-derived xenograft (PDX) Panc354 (referred to hereafter as PDAC3) was obtained from Dr. Manuel Hidalgo under a Material Transfer Agreement with the Spanish National Cancer Centre (CNIO), Madrid, Spain (Reference no. I409181220BSMH). PDAC1, PDAC2 and PDAC4 PDXs were established from primary patient resected tumors. Samples were provided by the BioBank Hospital Ramón y Cajal-IRYCIS (PT13/0010/0002), integrated in the Spanish National Biobanks Network and they were processed following standard operating procedures with the appropriate approval of the Ethical and Scientific Committees (Control no. No. Control: DE-BIOB-73 AC65, RG.BIOB-96 REV, and CI-BIOB-08-10-01 rev), with informed consent and according to Declaration of Helsinki principles. […]
Pancreatic CSC spheres were generated as previously described in ultra-low attachment plates (Corning) using CSC media: serum-free DMEM/F12 medium (1:1; #21331-020; Gibco, Waltham, MA, USA), supplemented with Pen/Strep (1:100; #1500-063; Gibco, Waltham, MA, USA), Fungizone (1:250; #15290-018; Gibco), L-Glutamine (1:100; #25030-024; Gibco, Waltham, MA, USA), B-27 (1:50; #17504-044; Gibco, Waltham, MA, USA) and basic fibroblast growth factor (FGF-b) (1:5000; Gibco, Waltham, MA, USA). […] To quantify spheres of > 40 μm, 1 mL of sample volume was analyzed with a CASY® Cell Counter (Roche Applied Sciences, Mannheim, Germany). […]

For experiment [3], the target named is T1, PIK3CA(Q546K) (Homo sapiens, UniProt P42336, Q546K).
T1 construct: purchased DiscoveRx KINOMEscan
The experiment in a line: KINOMEscan. The class given is binding. The note with it: read-out: % Ctrl.

Experiment [4] has as its target T2, HCK (Homo sapiens, UniProt P08631).
T2 construct: purchased DiscoveRx KINOMEscan
The experiment in a line: KINOMEscan. The note with it: read-out: % Ctrl. It is filed as binding.

The target in experiment [5] is T3, PIP5K2B (Homo sapiens, UniProt P78356).
T3 construct: purchased DiscoveRx KINOMEscan
T3 sequence (P78356 whole entry): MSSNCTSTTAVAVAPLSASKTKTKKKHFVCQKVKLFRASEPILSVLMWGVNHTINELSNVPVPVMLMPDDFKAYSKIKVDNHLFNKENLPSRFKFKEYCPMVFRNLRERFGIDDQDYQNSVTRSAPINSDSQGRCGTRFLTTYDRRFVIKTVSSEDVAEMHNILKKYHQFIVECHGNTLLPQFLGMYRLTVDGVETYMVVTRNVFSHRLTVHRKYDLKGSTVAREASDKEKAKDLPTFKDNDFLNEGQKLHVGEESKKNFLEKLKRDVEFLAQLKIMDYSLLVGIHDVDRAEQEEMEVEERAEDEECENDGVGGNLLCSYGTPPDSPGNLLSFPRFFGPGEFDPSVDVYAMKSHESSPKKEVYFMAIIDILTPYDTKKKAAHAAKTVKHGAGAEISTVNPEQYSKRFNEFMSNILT
The experiment can be described thus: KINOMEscan. The class given is binding. Conditions: read-out: % Ctrl.

The target of experiment [6] is T4, HIPK4 (Homo sapiens, UniProt Q8NE63).
T4 construct: purchased DiscoveRx KINOMEscan
T4 sequence (Q8NE63 whole entry): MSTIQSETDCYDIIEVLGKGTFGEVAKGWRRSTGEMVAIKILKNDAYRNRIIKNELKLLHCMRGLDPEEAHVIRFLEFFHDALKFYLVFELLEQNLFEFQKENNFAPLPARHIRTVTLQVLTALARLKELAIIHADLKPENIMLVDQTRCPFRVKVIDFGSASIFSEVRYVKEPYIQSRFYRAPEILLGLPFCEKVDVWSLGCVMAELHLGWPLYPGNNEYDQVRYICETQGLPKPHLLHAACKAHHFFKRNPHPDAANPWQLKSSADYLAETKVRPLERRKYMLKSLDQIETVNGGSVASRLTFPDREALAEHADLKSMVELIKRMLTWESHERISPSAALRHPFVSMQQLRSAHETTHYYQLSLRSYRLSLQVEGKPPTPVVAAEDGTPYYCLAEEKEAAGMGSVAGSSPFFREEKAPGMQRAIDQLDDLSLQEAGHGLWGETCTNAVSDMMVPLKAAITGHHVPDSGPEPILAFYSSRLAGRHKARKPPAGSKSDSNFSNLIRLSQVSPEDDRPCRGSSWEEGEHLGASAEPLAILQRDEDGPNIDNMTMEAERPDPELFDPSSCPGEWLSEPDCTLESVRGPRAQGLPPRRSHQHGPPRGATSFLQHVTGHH
The experiment can be described thus: KINOMEscan. The class given is binding. The note with it: read-out: % Ctrl.

Experiment [7] deals with T5, HUNK (Homo sapiens, UniProt P57058).
T5 construct: purchased DiscoveRx KINOMEscan
The experiment in a line: KINOMEscan. It is filed as binding. The note with it: read-out: % Ctrl.

For experiment [8], the target named is T6, ICK (Homo sapiens, UniProt Q9UPZ9).
T6 construct: purchased DiscoveRx KINOMEscan
T6 sequence (Q9UPZ9 whole entry): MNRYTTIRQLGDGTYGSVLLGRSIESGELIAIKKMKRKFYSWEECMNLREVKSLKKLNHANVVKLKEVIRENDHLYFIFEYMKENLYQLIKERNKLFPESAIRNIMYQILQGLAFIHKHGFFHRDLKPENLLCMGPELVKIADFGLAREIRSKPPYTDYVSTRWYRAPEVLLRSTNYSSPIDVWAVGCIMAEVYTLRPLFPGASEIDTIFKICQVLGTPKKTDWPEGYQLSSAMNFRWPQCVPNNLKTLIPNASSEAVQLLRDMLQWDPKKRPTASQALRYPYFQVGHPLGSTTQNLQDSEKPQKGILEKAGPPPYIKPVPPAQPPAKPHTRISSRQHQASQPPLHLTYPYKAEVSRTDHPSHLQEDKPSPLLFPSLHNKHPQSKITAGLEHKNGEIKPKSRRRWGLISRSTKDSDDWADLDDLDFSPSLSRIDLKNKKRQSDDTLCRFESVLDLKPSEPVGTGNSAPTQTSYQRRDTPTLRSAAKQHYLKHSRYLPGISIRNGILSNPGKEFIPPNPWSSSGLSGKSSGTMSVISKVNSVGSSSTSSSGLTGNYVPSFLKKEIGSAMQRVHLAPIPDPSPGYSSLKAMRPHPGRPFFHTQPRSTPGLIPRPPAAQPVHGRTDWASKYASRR
The experiment in a line: KINOMEscan. The class given is binding. The note with it: read-out: % Ctrl.

The target in experiment [9] is T7, CAMK2G (Homo sapiens, UniProt Q13555).
T7 construct: purchased DiscoveRx KINOMEscan
T7 sequence (Q13555 whole entry): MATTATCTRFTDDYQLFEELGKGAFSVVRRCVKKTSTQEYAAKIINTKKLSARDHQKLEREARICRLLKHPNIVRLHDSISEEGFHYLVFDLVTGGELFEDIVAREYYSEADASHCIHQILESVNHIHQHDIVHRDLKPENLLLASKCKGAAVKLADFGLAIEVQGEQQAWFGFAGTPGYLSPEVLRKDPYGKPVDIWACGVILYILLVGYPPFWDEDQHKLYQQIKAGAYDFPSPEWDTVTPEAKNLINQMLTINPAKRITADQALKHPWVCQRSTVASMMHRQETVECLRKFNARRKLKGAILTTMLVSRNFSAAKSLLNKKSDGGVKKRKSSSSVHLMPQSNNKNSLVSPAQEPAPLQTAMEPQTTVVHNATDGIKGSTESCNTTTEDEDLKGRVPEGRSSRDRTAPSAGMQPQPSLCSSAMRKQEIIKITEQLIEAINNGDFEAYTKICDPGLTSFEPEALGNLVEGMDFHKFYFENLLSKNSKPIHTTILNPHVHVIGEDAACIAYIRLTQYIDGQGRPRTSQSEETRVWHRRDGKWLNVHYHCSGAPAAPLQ
The experiment can be described thus: KINOMEscan. The class given is binding. Conditions: read-out: % Ctrl.

The target of experiment [10] is T8, CAMKK1 (Homo sapiens, UniProt Q8N5S9).
T8 construct: purchased DiscoveRx KINOMEscan
The experiment in a line: KINOMEscan. It is filed as binding. Conditions: read-out: % Ctrl.

In experiment [11] the target is T9, LKB1 (Homo sapiens, UniProt Q15831).
T9 construct: purchased DiscoveRx KINOMEscan
The experiment can be described thus: KINOMEscan. The class given is binding. Conditions: read-out: % Ctrl.

Experiment [12] concerns the target T10, ROCK1 (Homo sapiens, UniProt Q13464).
T10 construct: purchased DiscoveRx KINOMEscan
The experiment in a line: KINOMEscan. The class given is binding. Conditions: read-out: % Ctrl.

Experiment [13] concerns the target T11, SGK (Homo sapiens, UniProt O00141).
T11 construct: purchased DiscoveRx KINOMEscan
The experiment in a line: KINOMEscan. The class given is binding. The note with it: read-out: % Ctrl.

The target in experiment [14] is T12, CSNK1G1 (Homo sapiens, UniProt Q9HCP0).
T12 construct: purchased DiscoveRx KINOMEscan
T12 sequence (Q9HCP0 whole entry): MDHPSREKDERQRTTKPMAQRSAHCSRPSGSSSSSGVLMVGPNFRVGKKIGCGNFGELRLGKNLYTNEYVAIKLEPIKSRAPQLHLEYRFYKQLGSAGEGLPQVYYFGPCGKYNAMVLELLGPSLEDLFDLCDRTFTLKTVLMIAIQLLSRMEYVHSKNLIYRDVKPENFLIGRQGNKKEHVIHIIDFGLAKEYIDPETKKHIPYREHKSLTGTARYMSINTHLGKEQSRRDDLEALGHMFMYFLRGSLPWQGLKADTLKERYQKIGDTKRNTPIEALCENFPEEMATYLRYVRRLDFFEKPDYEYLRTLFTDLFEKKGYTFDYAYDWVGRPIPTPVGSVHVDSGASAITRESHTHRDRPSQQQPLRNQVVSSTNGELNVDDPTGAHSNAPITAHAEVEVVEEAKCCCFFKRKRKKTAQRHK
The experiment in a line: KINOMEscan. The class given is binding. The note with it: read-out: % Ctrl.

In experiment [15] the target is T13, DCAMKL3 (Homo sapiens, UniProt Q9C098).
T13 construct: purchased DiscoveRx KINOMEscan
The experiment in a line: KINOMEscan. Conditions: read-out: % Ctrl. The class given is binding.

For experiment [16], the target named is T14, TSSK1B (Homo sapiens, UniProt Q9BXA7).
T14 construct: purchased DiscoveRx KINOMEscan
T14 sequence (Q9BXA7 whole entry): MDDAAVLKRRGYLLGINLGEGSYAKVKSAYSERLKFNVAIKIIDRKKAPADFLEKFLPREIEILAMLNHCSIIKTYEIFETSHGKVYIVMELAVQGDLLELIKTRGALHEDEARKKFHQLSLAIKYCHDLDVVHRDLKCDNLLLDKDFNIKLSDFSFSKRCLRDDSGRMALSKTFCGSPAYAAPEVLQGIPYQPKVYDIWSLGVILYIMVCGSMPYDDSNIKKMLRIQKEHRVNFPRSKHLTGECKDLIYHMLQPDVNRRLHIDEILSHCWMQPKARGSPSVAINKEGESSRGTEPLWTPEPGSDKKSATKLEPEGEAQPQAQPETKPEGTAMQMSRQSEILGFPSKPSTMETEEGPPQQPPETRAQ
The experiment can be described thus: KINOMEscan. The class given is binding. The note with it: read-out: % Ctrl.

The target in experiment [17] is T15, NIK (Homo sapiens, UniProt Q99558).
T15 construct: purchased DiscoveRx KINOMEscan
T15 sequence (Q99558 whole entry): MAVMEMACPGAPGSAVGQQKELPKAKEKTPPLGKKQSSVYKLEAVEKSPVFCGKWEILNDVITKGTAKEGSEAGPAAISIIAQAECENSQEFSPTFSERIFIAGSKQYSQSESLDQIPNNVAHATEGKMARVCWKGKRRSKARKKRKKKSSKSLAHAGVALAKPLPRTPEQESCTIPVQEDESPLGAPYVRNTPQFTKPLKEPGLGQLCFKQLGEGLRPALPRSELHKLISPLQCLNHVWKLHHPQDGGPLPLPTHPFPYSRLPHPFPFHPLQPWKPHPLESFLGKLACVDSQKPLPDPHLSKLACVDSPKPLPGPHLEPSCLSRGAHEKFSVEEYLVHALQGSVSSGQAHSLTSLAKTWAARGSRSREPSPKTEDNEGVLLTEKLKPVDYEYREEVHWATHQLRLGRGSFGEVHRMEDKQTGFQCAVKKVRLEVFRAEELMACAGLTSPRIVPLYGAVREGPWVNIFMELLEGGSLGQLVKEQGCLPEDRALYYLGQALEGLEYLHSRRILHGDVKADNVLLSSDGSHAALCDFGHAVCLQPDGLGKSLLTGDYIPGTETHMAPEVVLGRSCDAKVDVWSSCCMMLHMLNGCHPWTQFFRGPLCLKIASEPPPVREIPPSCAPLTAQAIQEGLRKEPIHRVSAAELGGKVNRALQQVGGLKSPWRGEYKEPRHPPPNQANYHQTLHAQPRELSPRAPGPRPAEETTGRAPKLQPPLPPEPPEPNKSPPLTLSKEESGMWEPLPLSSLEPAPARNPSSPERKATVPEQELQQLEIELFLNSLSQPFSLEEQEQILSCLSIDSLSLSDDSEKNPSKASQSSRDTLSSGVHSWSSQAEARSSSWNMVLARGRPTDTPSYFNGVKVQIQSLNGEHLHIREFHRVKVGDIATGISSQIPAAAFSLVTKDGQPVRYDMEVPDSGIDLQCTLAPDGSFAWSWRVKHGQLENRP
The experiment in a line: KINOMEscan. Conditions: read-out: % Ctrl. The class given is binding.

Experiment [18] deals with T16, YES (Homo sapiens, UniProt P07947).
T16 construct: purchased DiscoveRx KINOMEscan
The experiment can be described thus: KINOMEscan. The note with it: read-out: % Ctrl. It is filed as binding.

Experiment [19] addresses T17, PCTK1 (Homo sapiens, UniProt Q00536).
T17 construct: purchased DiscoveRx KINOMEscan
The experiment in a line: KINOMEscan. It is filed as binding. Conditions: read-out: % Ctrl.

SMILES strings stand for the structures. pEC50: −log10 of the molar value.

T11 sequence (O00141 whole entry): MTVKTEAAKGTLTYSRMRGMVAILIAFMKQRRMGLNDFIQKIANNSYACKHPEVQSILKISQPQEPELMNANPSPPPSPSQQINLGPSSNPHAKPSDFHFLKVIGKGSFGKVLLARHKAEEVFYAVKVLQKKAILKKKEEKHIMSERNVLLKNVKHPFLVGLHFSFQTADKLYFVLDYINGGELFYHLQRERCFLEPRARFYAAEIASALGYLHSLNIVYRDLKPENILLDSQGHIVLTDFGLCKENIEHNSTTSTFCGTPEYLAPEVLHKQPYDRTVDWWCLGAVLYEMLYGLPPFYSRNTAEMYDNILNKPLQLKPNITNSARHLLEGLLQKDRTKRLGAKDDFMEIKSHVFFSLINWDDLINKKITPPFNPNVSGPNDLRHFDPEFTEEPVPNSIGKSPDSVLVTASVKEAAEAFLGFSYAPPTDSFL
T2 sequence (P08631 whole entry): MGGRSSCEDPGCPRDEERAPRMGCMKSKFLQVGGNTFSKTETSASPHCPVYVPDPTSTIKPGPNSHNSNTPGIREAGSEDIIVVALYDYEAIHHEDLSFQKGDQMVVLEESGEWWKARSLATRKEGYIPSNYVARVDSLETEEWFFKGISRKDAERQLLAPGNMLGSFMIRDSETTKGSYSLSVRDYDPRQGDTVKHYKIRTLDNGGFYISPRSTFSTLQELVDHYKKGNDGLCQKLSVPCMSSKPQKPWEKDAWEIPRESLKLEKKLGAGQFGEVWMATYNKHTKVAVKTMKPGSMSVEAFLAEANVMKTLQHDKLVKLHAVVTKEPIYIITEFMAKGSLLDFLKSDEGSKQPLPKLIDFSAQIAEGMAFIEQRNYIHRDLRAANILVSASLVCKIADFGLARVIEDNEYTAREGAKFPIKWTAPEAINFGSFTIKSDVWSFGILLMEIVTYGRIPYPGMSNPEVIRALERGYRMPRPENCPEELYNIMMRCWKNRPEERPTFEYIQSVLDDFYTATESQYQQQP

On to `Fc1ccc(-n2cc(CCCCN3CCC4(CC3)OCc3ccccc34)c3ccccc32)cc1` [siramesine], for which the efficacy in vivo result in [1] is reported as “ineffective in vivo”.

Broadly, the pEC50 is the EC50 on a negative log10 scale, so that one unit is a factor of ten. Read a high pEC50 as a small EC50. Regarding `COc1nc2ccc(NCC3CCN(C)CC3)nn2c1C(=O)Nc1cccc(OC(F)(F)F)c1` [Cpd 1], in [2], the negative logarithm of the EC50 (pEC50) was about 5.54.

Regarding `CN1CCC(CNc2ccc3ncc(C(=O)Nc4cccc(OC(F)(F)F)c4)n3n2)CC1` [Cpd 2], the remaining binding at 1 µM stood at 89% in [3]; 96% in experiment [4]; 95% in [5]; 88% in experiment [6]; 100% in [7]; 93% in experiment [8]. For the same molecule, the remaining binding at 1 µM in [9] was 100%; in [10], 94%; in [11], 96%; in experiment [12] it was 50%; in experiment [13], 85%; in [14], 99%. Further, the remaining binding at 1 µM came out at 100% in experiment [15]; 95% in experiment [16]; 100% in experiment [17]; 95% in experiment [18]; 100% in experiment [19].

Values taken from paper PMC7407272, “Induction of Lysosome Membrane Permeabilization as a Therapeutic Strategy to Target Pancreatic Cancer Stem Cells” (Cancers, 2020).
